Data reported in patent publication US7598242B2 (priority 2001, dated 2009).

Biological target: T1, purified catalytic domain of recombinant human TACE (rhTACEc) (Homo sapiens, UniProt P78536, N452Q/S266A)
T1 construct: Residue 215 to 477 with two mutation (S266A and N452Q) and a 6×His tail; 6xHis (C); made in house; host or cells: baculovirus/Hi5 insect cells
Assay: biochemical

T1 sequence (P78536 215-477 S266A/N452Q): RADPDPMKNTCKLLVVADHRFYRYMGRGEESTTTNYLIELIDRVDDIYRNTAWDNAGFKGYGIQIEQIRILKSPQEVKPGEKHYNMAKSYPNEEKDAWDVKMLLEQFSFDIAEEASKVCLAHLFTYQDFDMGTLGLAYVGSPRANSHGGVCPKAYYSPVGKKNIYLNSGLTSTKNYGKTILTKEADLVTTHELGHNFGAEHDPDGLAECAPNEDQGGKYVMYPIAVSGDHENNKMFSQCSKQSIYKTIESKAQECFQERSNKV

Structure (SMILES) | Ki [nM]
CN(C)C1CCN(C(=O)[C@@]2(Cc3ccc(OCc4cc(-c5ccncc5)nc5ccccc45)c(F)c3)C[C@@H]2C(=O)NO)C1 (some centres unmarked) [JV] | < 20
CCc1cc(COc2ccc(C[C@]3(C(=O)N4CC[C@@H](NC(=O)C(F)(F)F)C4)C[C@@H]3C(=O)NO)cc2F)c2ccccc2n1 [JU] | < 20
Cc1cc(COc2cccc([C@@]3(C(=O)OC(C)C)C[C@H]3C(=O)NO)c2)c2ccccc2n1 [KM] | < 20
CN(C)c1cc(COc2ccc(C[C@]3(C(N)=O)C[C@@H]3C(=O)NO)cc2F)c2ccccc2n1 [CN] | < 20
COC(=O)[C@@]1(Cc2ccc(OCc3cc(N4CCCC4)nc4ccccc34)c(F)c2)C[C@@H]1C(=O)NO [FY] | < 20
CN1CCN(c2cc(COc3ccc(C[C@]4(C(N)=O)C[C@@H]4C(=O)NO)cc3F)c3ccccc3n2)CC1 [FX] | < 20
CCc1cc(COc2ccc(C[C@]3(C(=O)OC)C[C@@H]3C(=O)NO)cc2F)c2ccccc2n1 [DB] | < 20
NC(=O)[C@@]1(Cc2ccc(OCc3cc(-c4ccc(Cl)cc4)nc4ccccc34)c(F)c2)C[C@@H]1C(=O)NO [CY] | < 20
NC(=O)[C@@]1(Cc2ccc(OCc3cc(N4CCCCC4)nc4ccccc34)c(F)c2)C[C@@H]1C(=O)NO [LM] | < 20
CCOC(=O)[C@@]1(Cc2ccc(OCc3cc(-c4cccnc4)nc4ccc(C)cc34)c(F)c2)C[C@@H]1C(=O)NO [GV] | < 20
CN(C)CCN(C)C(=O)[C@@]1(Cc2ccc(OCc3cc(-c4ccccc4)nc4ccccc34)cc2)C[C@@H]1C(=O)NO [JD] | < 20
CCOC(=O)[C@@]1(Cc2ccc(OCc3ccnc(N4CCOCC4)c3)cc2)C[C@@H]1C(=O)NO [LH] | < 20
CCCc1cc(COc2ccc(C[C@]3(C(N)=O)C[C@@H]3C(=O)NO)cc2F)c2ccccc2n1 [CR] | < 20
NC(=O)[C@@]1(Cc2ccc(OCc3cc(-c4ccccn4)nc4ccccc34)c(F)c2)C[C@@H]1C(=O)NO [CS] | < 20
CN(C)C(=O)[C@@]1(Cc2ccc(OCc3cc(-c4ccncc4)nc4ccccc34)c(F)c2)C[C@@H]1C(=O)NO [CZ] | < 20
COC(=O)[C@@]1(Cc2ccc(OCc3cc(-c4ccncc4)nc4ccccc34)c(F)c2)C[C@@H]1C(=O)NO [LI] | < 20
COC(=O)[C@@]1(Cc2ccc(OCc3cc(N4CCN(C)CC4)nc4ccccc34)c(F)c2)C[C@@H]1C(=O)NO [GA] | < 20
NC(=O)[C@@]1(Cc2ccc(OCc3cc(C4CC4)nc4ccccc34)c(F)c2)C[C@@H]1C(=O)NO [CU] | < 20
CNc1cc(COc2ccc(C[C@]3(C(=O)OC)C[C@@H]3C(=O)NO)cc2F)c2ccccc2n1 [GB] | < 20
CCc1cc(COc2ccc(C[C@]3(C(N)=O)C[C@@H]3C(=O)NO)cc2F)c2ccccc2n1 [CO] | < 20
CCc1cc(COc2ccc(C[C@]3(C(=O)N4CC[C@H](N(C)C)C4)C[C@@H]3C(=O)NO)cc2F)c2ccccc2n1 [JT] | < 20
NC(=O)[C@@]1(Cc2ccc(OCc3cc(-c4ccccc4Cl)nc4ccccc34)c(F)c2)C[C@@H]1C(=O)NO [CW] | < 20
COC(=O)[C@@]1(Cc2ccc(OCc3cc(N4CCOCC4)nc4ccccc34)c(F)c2)C[C@@H]1C(=O)NO [FZ] | < 20

More lines, now with the values ahead:

Ki [nM] | Structure (SMILES)
< 20 | CCc1cc(COc2ccc(C[C@]3(C(=O)N4CC[C@H](O)C4)C[C@@H]3C(=O)NO)cc2F)c2ccccc2n1 [JR]
< 20 | CCc1cc(COc2ccc(C[C@]3(C(=O)N4CC[C@@H](N)C4)C[C@@H]3C(=O)NO)cc2F)c2ccccc2n1 [JS]
< 20 | CCc1cc(COc2ccc(C[C@]3(C(=O)N4CC[C@H](N(C)C)C4)C[C@@H]3C(=O)NO)cc2)c2ccccc2n1 [JF]
< 20 | Cc1cc(COc2ccc(C[C@]3(C(=O)N(C)C)C[C@@H]3C(=O)NO)cc2)c2ccccc2n1 [BL]
< 20 | CN(C)C(=O)[C@@]1(Cc2ccc(OCc3cc(C(F)(F)F)nc4ccccc34)cc2)C[C@@H]1C(=O)NO [BO]
< 20 | NC(=O)[C@@]1(Cc2ccc(OCc3cc(-c4cccnc4)nc4ccccc34)cc2)C[C@@H]1C(=O)NO [DA]
< 20 | CC1CCCN1c1cc(COc2ccc(C[C@]3(C(N)=O)C[C@@H]3C(=O)NO)cc2F)c2ccccc2n1 (some centres unmarked) [FV]
< 20 | Cc1cc(COc2ccc(C[C@]3(C(N)=O)C[C@@H]3C(=O)NO)cc2Cl)c2ccccc2n1 [FN]
< 20 | N[C@@H]1CCN(C(=O)[C@@]2(Cc3ccc(OCc4cc(-c5ccccc5)nc5ccccc45)cc3)C[C@@H]2C(=O)NO)C1 [KZ]
< 20 | Cc1cc(COc2ccc(C[C@]3(C(N)=O)C[C@@H]3C(=O)NO)cc2F)c2ccccc2n1 [CV]
< 20 | CCc1cc(COc2ccc(C[C@]3(C(=O)N4CC[C@H](O)C4)C[C@@H]3C(=O)NO)cc2)c2ccccc2n1 [JC]
< 20 | Cc1cc(COc2ccc(C[C@]3(C(=O)NCc4ccccc4)C[C@@H]3C(=O)NO)cc2)c2ccccc2n1 [O]
< 20 | Cc1cc(COc2ccc(C[C@]3(C(=O)N4CCC[C@H]4CO)C[C@@H]3C(=O)NO)cc2)c2ccccc2n1 [JG]
< 20 | Cc1cc(COc2ccc(C[C@]3(C(N)=O)C[C@@H]3C(=O)NO)cc2Br)c2ccccc2n1 [FQ]
< 20 | Cc1cc(COc2ccc(C[C@]3(C(=O)N(C)C)C[C@@H]3C(=O)NO)cc2F)c2ccccc2n1 [JO]
< 20 | CN(C)CCNC(=O)[C@@]1(Cc2ccc(OCc3cc(C(F)(F)F)nc4ccccc34)cc2)C[C@@H]1C(=O)NO [BP]
< 20 | Cc1cc(COc2ccc(C[C@]3(C(=O)NCc4cccnc4)C[C@@H]3C(=O)NO)cc2)c2ccccc2n1 [P]
< 20 | Cc1cc(COc2ccc(C[C@]3(C#N)C[C@@H]3C(=O)NO)cc2)c2ccccc2n1 [FG]
< 20 | O=C(NO)[C@H]1C[C@]1(Cc1ccc(OCc2cc(-c3ccccc3)nc3ccccc23)cc1)C(=O)N1CC[C@H](NC(=O)C(F)(F)F)C1 [JE]
< 20 | O=C1CN(C(=O)[C@@]2(Cc3ccc(OCc4cc(-c5ccccc5)nc5ccccc45)cc3)C[C@@H]2C(=O)NO)CCN1 [BQ]
< 20 | Cc1cc(COc2cccc([C@@]3(C(=O)NC4CCCCC4)C[C@H]3C(=O)NO)c2)c2ccccc2n1 [JY]
